Molecular target: 2-methylisoborneol synthase (MIBS), full length (Streptomyces coelicolor, UniProt Q9F1Y6, E193A)
Assay: GC-MS of pentane-extracted products
Type: biochemical
Details: 60 μM substrate, 5 μM enzyme, 10 mM MgCl2, pH 7.0, 30 °C, 12 h

Chain of 2-methylisoborneol synthase (MIBS), full length (Q9F1Y6 whole entry E193A): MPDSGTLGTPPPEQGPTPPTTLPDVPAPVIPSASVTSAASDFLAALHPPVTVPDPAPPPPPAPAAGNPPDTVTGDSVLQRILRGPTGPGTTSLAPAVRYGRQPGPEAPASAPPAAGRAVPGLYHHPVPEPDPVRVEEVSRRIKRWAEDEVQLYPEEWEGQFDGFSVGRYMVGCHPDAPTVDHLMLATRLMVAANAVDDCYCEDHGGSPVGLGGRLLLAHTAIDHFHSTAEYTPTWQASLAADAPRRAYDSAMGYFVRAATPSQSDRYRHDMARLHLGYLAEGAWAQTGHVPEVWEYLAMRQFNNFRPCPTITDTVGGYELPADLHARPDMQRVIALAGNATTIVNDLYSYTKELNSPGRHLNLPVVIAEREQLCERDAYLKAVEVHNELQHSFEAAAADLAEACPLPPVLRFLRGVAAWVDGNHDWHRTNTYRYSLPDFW

**Q.** Which “GC-MS of pentane-extracted products” value does the source give for `CC(C)=CCC/C(C)=C(\C)COP(=O)(O)OP(=O)(O)O` [2MGPP, 2-methylgeranyl diphosphate] here?
**A.** overnight incubation of the E193A, E193L, and E193D mutants with 2MGPP
